Where two headings read alike, the source gives them in different places.
What was measured:
barnyardgrass [1] = assay: Test B pre-/postemergence herbicide test; format: in vivo, Echinochloa crus-galli; details: Echinochloa crus-galli; for pest or weed control at 125 g/ha: 125 g ai/ha; for pest or weed control at 500 g/ha: 500 g ai/ha
Procedure, shortened: (§1)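 Response was scored visually 13 to 15 days after treatment against untreated greenhouse controls, 0 meaning no effect and 100 complete control. Formulations (solvent mixture plus surfactant) went onto soil after planting, onto foliage of 1- to 4-leaf plants, and onto 2-leaf plants in a flooded paddy set including rice and barnyardgrass.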

Surinam grass = assay: Test B pre-/postemergence herbicide test; format: in vivo, Urochloa decumbens; details: Urochloa decumbens; for pest or weed control at 125 g/ha: 125 g ai/ha; for pest or weed control at 500 g/ha: 500 g ai/ha
Procedure, shortened: as §1

cocklebur = assay: Test B pre-/postemergence herbicide test; format: in vivo, Xanthium strumarium; details: Xanthium strumarium; for pest or weed control at 125 g/ha: 125 g ai/ha; for pest or weed control at 500 g/ha: 500 g ai/ha
Procedure, shortened: as §1

large crabgrass = assay: Test B pre-/postemergence herbicide test; format: in vivo, Digitaria sanguinalis; details: Digitaria sanguinalis; for pest or weed control at 125 g/ha: 125 g ai/ha; for pest or weed control at 500 g/ha: 500 g ai/ha
Procedure, shortened: as §1

giant foxtail = assay: Test B pre-/postemergence herbicide test; format: in vivo, Setaria faberi; details: Setaria faberi, 336 h; for pest or weed control at 125 g/ha: 125 g ai/ha; for pest or weed control at 500 g/ha: 500 g ai/ha
Procedure, shortened: as §1

lambsquarters = assay: Test B pre-/postemergence herbicide test; format: in vivo, Chenopodium album; details: Chenopodium album, 336 h; for pest or weed control at 125 g/ha: 125 g ai/ha; for pest or weed control at 500 g/ha: 500 g ai/ha
Procedure, shortened: as §1

morningglory = assay: Test B pre-/postemergence herbicide test; format: in vivo, Ipomoea coccinea; details: Ipomoea, 336 h; for pest or weed control at 125 g/ha: 125 g ai/ha; for pest or weed control at 500 g/ha: 500 g ai/ha
Procedure, shortened: as §1

pigweed = assay: Test B pre-/postemergence herbicide test; format: in vivo, Amaranthus retroflexus; details: Amaranthus retroflexus, 336 h; for pest or weed control at 125 g/ha: 125 g ai/ha; for pest or weed control at 500 g/ha: 500 g ai/ha
Procedure, shortened: as §1

velvetleaf = assay: Test B pre-/postemergence herbicide test; format: in vivo, Abutilon theophrasti; details: Abutilon theophrasti, 336 h; for pest or weed control at 125 g/ha: 125 g ai/ha; for pest or weed control at 500 g/ha: 500 g ai/ha
Procedure, shortened: as §1

blackgrass = assay: Test B postemergence herbicide test; format: in vivo, Alopecurus myosuroides; details: Alopecurus myosuroides, post-emergence, 336 h, postemergence, visual rating, scale 0 (no effect) to 100 (complete control), read-out: Blackgrass plant response rating
Procedure, shortened: (§2)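 Visual control ratings, 0–100 versus untreated controls, taken after 13 to 15 days in the greenhouse. Blackgrass received a postemergence spray at the 1- to 4-leaf stage (2–18 cm); ducksalad, umbrella sedge and barnyardgrass were flooded-paddy treated at 2 leaves.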

wheat = assay: Test B postemergence herbicide test; format: in vivo, Triticum aestivum; details: Triticum aestivum, post-emergence, 336 h, postemergence, read-out: Wheat plant response rating
Procedure, shortened: (§3)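 After treating 2-leaf paddy plants or 2–18 cm postemergence plants (1 to 4 leaves) with formulated chemical, researchers kept them in a greenhouse for 13–15 days. Effects were judged visually versus controls: 0 indicates none, 100 total control.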

wild oat = assay: Test B postemergence herbicide test; format: in vivo, Avena fatua; details: Avena fatua, post-emergence, 336 h, postemergence, read-out: Oat, Wild plant response rating
Procedure, shortened: as §3

rice = assay: Test B flooded paddy test; format: in vivo, Oryza sativa; details: Oryza sativa, 336 h, 1000 g ai/ha, scale 0 to 100 (0 no effect, 100 complete control), read-out: Rice plant response rating
Procedure, shortened: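 Postemergence plants were sprayed with formulated test chemicals at 2 to 18 cm height (1- to 4-leaf stage); paddy species were grown to the 2-leaf stage. After 13 to 15 days in a greenhouse, injury was rated visually against untreated controls on a 0–100 scale (0 = no effect, 100 = complete control).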

[2] = system: small flower umbrella sedge; assay: Test B flooded paddy test; format: in vivo, Cyperus difformis; details: Cyperus difformis, 336 h, 1000 g ai/ha, scale 0 to 100 (0 no effect, 100 complete control), read-out: Sedge, Umbrella plant response rating
Procedure, shortened: as §2

barnyardgrass [3] = assay: Test B flooded paddy test; format: in vivo, Echinochloa crus-galli; details: Echinochloa crus-galli, 336 h, 1000 g ai/ha, scale 0 to 100 (0 no effect, 100 complete control), read-out: Barnyardgrass plant response rating
Procedure, shortened: as §2

[4] = post-emergence, postemergence, visual rating, scale 0 (no effect) to 100 (complete control), read-out: Barnyardgrass plant response rating
[5] = post-emergence, postemergence, visual rating, scale 0 (no effect) to 100 (complete control), read-out: Cocklebur plant response rating
[6] = 125 g ai/ha, visual rating, scale 0 (no effect) to 100 (complete control)
[7] = 500 g ai/ha, scale 0 to 100, 0 is no effect, 100 is complete control

What does the source list for `CCN1N=C(C(C)(C)C)CC1C(=O)Nc1cc(C(=O)N(C)C)ccc1F` (stereo not drawn) [Compound 268, N-[5-[(dimethylamino)carbonyl]-2-fluorophenyl]-3-(1,1-dimethylethyl)-1-ethyl-4,5-dihydro-1H-pyrazole-5-carboxamide]?
pest or weed control at 125 g/ha (barnyardgrass [1]; [4]): 0%; pest or weed control at 500 g/ha (barnyardgrass [1]; [4]): 30%; pest or weed control at 125 g/ha (barnyardgrass [1]; pre-emergence, 0 = no effect, 100 = complete control, read-out: Barnyardgrass plant response rating (0 to 100 scale)): 100%; pest or weed control at 500 g/ha (barnyardgrass [1]; pre-emergence, visual rating, 0 = no effect, 100 = complete control, read-out: Plant response rating, Barnyardgrass): 100%; pest or weed control at 125 g/ha (Surinam grass; post-emergence, postemergence, visual rating, scale 0 (no effect) to 100 (complete control), read-out: Surinam Grass plant response rating): 10%; pest or weed control at 500 g/ha (Surinam grass; post-emergence, postemergence, scale 0 to 100, 0 is no effect, 100 is complete control, read-out: Surinam Grass plant response rating): 50%; pest or weed control at 125 g/ha (Surinam grass; pre-emergence, 0 = no effect, 100 = complete control, read-out: Surinam Grass plant response rating (0 to 100 scale)): 80%; pest or weed control at 500 g/ha (Surinam grass; pre-emergence, visual rating, 0 = no effect, 100 = complete control, read-out: Plant response rating, Surinam Grass): 100%; pest or weed control at 125 g/ha (cocklebur; [5]): 20%; pest or weed control at 500 g/ha (cocklebur; [5]): 50%; pest or weed control at 125 g/ha (cocklebur; pre-emergence, 0 = no effect, 100 = complete control, read-out: Cocklebur plant response rating (0 to 100 scale)): 80%; pest or weed control at 500 g/ha (cocklebur; pre-emergence, visual rating, 0 = no effect, 100 = complete control, read-out: Plant response rating, Cocklebur): 90%; pest or weed control at 125 g/ha (large crabgrass; post-emergence, postemergence, visual rating, scale 0 (no effect) to 100 (complete control), read-out: Crabgrass, Large plant response rating): 0%; pest or weed control at 500 g/ha (large crabgrass; post-emergence, postemergence, scale 0 to 100, 0 is no effect, 100 is complete control, read-out: Crabgrass, Large plant response rating): 20%; pest or weed control at 125 g/ha (large crabgrass; pre-emergence, 0 = no effect, 100 = complete control, read-out: Crabgrass, Large plant response rating (0 to 100 scale)): 100%; pest or weed control at 500 g/ha (large crabgrass; pre-emergence, visual rating, 0 = no effect, 100 = complete control, read-out: Plant response rating, Crabgrass, Large): 100%; pest or weed control at 125 g/ha (giant foxtail; post-emergence, postemergence, visual rating, scale 0 (no effect) to 100 (complete control), read-out: Foxtail, Giant plant response rating): 10%; pest or weed control at 500 g/ha (giant foxtail; post-emergence, postemergence, scale 0 to 100, 0 is no effect, 100 is complete control, read-out: Foxtail, Giant plant response rating): 20%; pest or weed control at 125 g/ha (giant foxtail; pre-emergence, 0 = no effect, 100 = complete control, read-out: Foxtail, Giant plant response rating (0 to 100 scale)): 100%; pest or weed control at 500 g/ha (giant foxtail; pre-emergence, visual rating, 0 = no effect, 100 = complete control, read-out: Plant response rating, Foxtail, Giant): 100%; pest or weed control at 125 g/ha (lambsquarters; post-emergence, postemergence, visual rating, scale 0 (no effect) to 100 (complete control), read-out: Lambsquarters plant response rating): 60%; pest or weed control at 500 g/ha (lambsquarters; post-emergence, postemergence, scale 0 to 100, 0 is no effect, 100 is complete control, read-out: Lambsquarters plant response rating): 70%; pest or weed control at 125 g/ha (lambsquarters; pre-emergence, 0 = no effect, 100 = complete control, read-out: Lambsquarters plant response rating (0 to 100 scale)): 100%; pest or weed control at 500 g/ha (lambsquarters; pre-emergence, visual rating, 0 = no effect, 100 = complete control, read-out: Plant response rating, Lambsquarters): 100%; pest or weed control at 125 g/ha (morningglory; post-emergence, postemergence, visual rating, scale 0 (no effect) to 100 (complete control), read-out: Morningglory plant response rating): 10%; pest or weed control at 500 g/ha (morningglory; post-emergence, postemergence, scale 0 to 100, 0 is no effect, 100 is complete control, read-out: Morningglory plant response rating): 20%; pest or weed control at 125 g/ha (morningglory; pre-emergence, 0 = no effect, 100 = complete control, read-out: Morningglory plant response rating (0 to 100 scale)): 0%; pest or weed control at 500 g/ha (morningglory; pre-emergence, visual rating, 0 = no effect, 100 = complete control, read-out: Plant response rating, Morningglory): 20%; pest or weed control at 125 g/ha (pigweed; post-emergence, postemergence, visual rating, scale 0 (no effect) to 100 (complete control), read-out: Pigweed plant response rating): 20%; pest or weed control at 500 g/ha (pigweed; post-emergence, postemergence, scale 0 to 100, 0 is no effect, 100 is complete control, read-out: Pigweed plant response rating): 50%; pest or weed control at 125 g/ha (pigweed; pre-emergence, 0 = no effect, 100 = complete control, read-out: Pigweed plant response rating (0 to 100 scale)): 100%; pest or weed control at 500 g/ha (pigweed; pre-emergence, visual rating, 0 = no effect, 100 = complete control, read-out: Plant response rating, Pigweed): 100%; pest or weed control at 125 g/ha (velvetleaf; post-emergence, postemergence, visual rating, scale 0 (no effect) to 100 (complete control), read-out: Velvetleaf plant response rating): 20%; pest or weed control at 500 g/ha (velvetleaf; post-emergence, postemergence, scale 0 to 100, 0 is no effect, 100 is complete control, read-out: Velvetleaf plant response rating): 60%; pest or weed control at 125 g/ha (velvetleaf; pre-emergence, 0 = no effect, 100 = complete control, read-out: Velvetleaf plant response rating (0 to 100 scale)): 100%; pest or weed control at 500 g/ha (velvetleaf; pre-emergence, visual rating, 0 = no effect, 100 = complete control, read-out: Plant response rating, Velvetleaf): 100%; pest or weed control at 125 g/ha (blackgrass; 125 g ai/ha): 30%; pest or weed control at 500 g/ha (blackgrass; 500 g ai/ha): 50%; plant injury at 125 g/ha (wheat; [6]): 30%; plant injury at 500 g/ha (wheat; [7]): 30%; pest or weed control at 125 g/ha (wild oat; [6]): 30%; pest or weed control at 500 g/ha (wild oat; [7]): 50%; plant injury at 1000 g/ha (rice): 90%; pest or weed control at 1000 g/ha [2]: 80%; pest or weed control at 1000 g/ha (barnyardgrass [3]): 90%
